# Legend:
# cAMP = cAMP level in mouse kidney tissue; assay type: in vivo; conditions: PC1 conditional knockout mouse kidneys, VX-809-treated vs untreated
# Experimental: FIG. 4A, FIG. 4B, FIG. 4C, FIG. 4D, and FIG. 4E show (FIG. 4A-FIG. 4B) cAMP levels are reduced by VX-809. (FIG. 4A) cAMP levels in mouse tissue were reduced by VX-809. The kidney samples (n=6) analyzed were taken from those depicted in FIG. 1. (FIG. 4B) Confluent PN and PH cells were treated with VX-809 (10 μM) or DMSO for 16 hand then treated with forskolin (100 μM) for 30 min before the cells were harvested for the assay. Columns represent means±SEM. Statistical analysis was performed using a two-tailed Student's t-test. Each set of data is from three individual wells; Note that resting cAMP is greater in PN vs PH cells as previously shown (25). Also note that forskolin caused a large increase in cAMP. A smaller increase occurred with IBMX. […] The data were analyzed by non-parametric t-test. […]
# It has been shown previously in both animal and cell culture models of ADPKD that cells lacking functional PC1 have elevated cAMP levels when compared to normal. To assess the effect of CFTR correctors, cAMP activity was measured in PC1 conditional knockout mouse kidneys and in PN cells that were either left untreated or treated with VX-809. […]
# Cyclic AMP assay. […] Cyclic AMP levels were measured with a direct cAMP Enzyme Immunoassay Kit (Sigma, #CA200) according to the manufacturer's protocol. The results are expressed as pmole/ml. […]
# [1] = test system: adenylyl cyclase (AC) 6 and AC3 in PN cells; assay: Western blot of adenylyl cyclase expression; assay type: cell-based, mouse; conditions: PN cells treated with VX-809
# Experimental: FIG. 4A, FIG. 4B, FIG. 4C, FIG. 4D, and FIG. 4E show (FIG. 4A-FIG. 4B) cAMP levels are reduced by VX-809. (FIG. 4A) cAMP levels in mouse tissue were reduced by VX-809. The kidney samples (n=6) analyzed were taken from those depicted in FIG. 1. (FIG. 4B) Confluent PN and PH cells were treated with VX-809 (10 μM) or DMSO for 16 hand then treated with forskolin (100 μM) for 30 min before the cells were harvested for the assay. Columns represent means±SEM. Statistical analysis was performed using a two-tailed Student's t-test. Each set of data is from three individual wells; Note that resting cAMP is greater in PN vs PH cells as previously shown (25). Also note that forskolin caused a large increase in cAMP. A smaller increase occurred with IBMX. However, the increase induced by forskolin alone was similar to that by IBMX plus forskolin. […] (FIG. 4C, FIG. 4D, and FIG. 4E) Adenylyl cyclase expression. (FIG. 4C) Western blot showing the expression of adenylyl cyclase (AC) 6 and AC3 in treated and control PN cells. (FIG. 4D-FIG. 4E) Columns represent means±SEM of the AC3 and AC6 expression. The data were analyzed by non-parametric t-test. The experiment was repeated four times. For all graphs, *P<0.05, **P<0.01, and ***P<0.001;
# There are two classes of adenylyl cyclases that are regulated by intracellular Ca^2+: one class is activated, and the other inhibited. […]
# [2] = test system: Hsp27, Hsp70, and Hsp90 in PN cells; assay: Disappearance of Hsps after translation block with cycloheximide; assay type: cell-based, mouse; conditions: VX-809 10 μM with cycloheximide 25 μM
# Experimental: FIG. 9A, FIG. 9B, FIG. 9C, FIG. 9D, FIG. 9E, FIG. 9F, FIG. 9G, and FIG. 9H show Hsp27, HSp70, and Hsp90 expression in PN cells treated with VX-809 and/or cycloheximide. (A) Pkd1 null (PN) cells were treated with VX-809 (10 μM) and/or with cycloheximide (25 μM) for indicated time points before being harvested for the assay. (FIG. 9A) Western blot showing expression of Hsp27, Hsp70, and Hsp90 in VX-809-(16 h), cycloheximide-treated, or control PN cells. ((FIG. 9B. (FIG. 9C, and (FIG. 9D) Columns represent averages±standard errors of Hsp27, Hsp70, and Hsp90 expression in cells treated with VX-809 and/or cycloheximide. ((FIG. 9E) Western blot showing expression of Hsp27, Hsp70, and Hsp90 in PN cells treated with VX-809+cycloheximide or control PN cells. ((FIG. 9F, FIG. 9G, and FIG. 9H) Columns represent averages±standard errors of Hsp27, Hsp70, and Hsp90 expression in cells treated only with cycloheximide or in control PN cells. Data were analyzed by non-parametric t-test. The experiments were repeated 3-5 times. *P<0.05, **P<0.01;
# To gain more insight into the mechanism whereby VX-809 alters Hsp protein levels, translation was inhibited by using cycloheximide and the disappearance of the three Hsps was monitored. […] Hsp90 was reduced by approximately 25%, and Hsp27 was unchanged.
# NHE3 in PN cells = assay: NHE3 expression; assay type: cell-based, mouse; conditions: treated PN cells vs PN cells
# Experimental: FIG. 14A and FIG. 14B show NHE3 expression in PN cells treated with VX-809.
# The expression and activity of […] were evaluated. Specifically, NHE3 expression was evaluated in PN cells that were treated with VX-809. […] was also studied in PN, PH, and PN cells treated with VX-809. […] Next, NHE3 activity was evaluated in PN/PH cells or PN cells treated with VX-809. NHE3 activity was increased in PN cells treated with VX-809, as compared to PN cells (FIG. 16A). NHE3 activity was higher in control PH cells than in PN cells (FIG. 16B). […] NHE3 activity was increased in both VX-809 treated PN cells and control PH cells, as compared to control PN cells (FIG. 16C).
compound,measurement,setting,value
"Cc1ccc(NC(=O)C2(c3ccc4c(c3)OC(F)(F)O4)CC2)nc1-c1cccc(C(=O)O)c1 [VX-809, lumacaftor]",cAMP levels in kidneys,cAMP,significantly decreased
same,AC3 levels,[1],decreased
same,AC6 regulation,[1],Regulates AC3 but not AC6
same,Hsp27 level over the 8-h period,[2],unchanged
same,Hsp90 reduction over the 8-h period,[2],approximately 25%
same,Hsp70 levels over the 8-h period,[2]; vs time 0,approximately half the level observed at time 0
same,NHE3 expression,NHE3 in PN cells,significantly increased

# From patent US20220133702A1, “CYSTIC FIBROSIS TRANSMEMBRANE CONDUCTANCE REGULATOR MODULATORS FOR TREATING AUTOSOMAL DOMINANT POLYCYSTIC KIDNEY DISEASE” (The Johns Hopkins University, priority 2020, published 2022)
